Legend:
Assay in all cases: β-arrestin based GPCR screen (PathHunter / GPCRmax), antagonist mode
168 GPCRs [1] = biological target: T1, 168 GPCRs (Homo sapiens, UniProt P08173); details: CHRM4, Antagonist
T1 sequence (P08173 1-479): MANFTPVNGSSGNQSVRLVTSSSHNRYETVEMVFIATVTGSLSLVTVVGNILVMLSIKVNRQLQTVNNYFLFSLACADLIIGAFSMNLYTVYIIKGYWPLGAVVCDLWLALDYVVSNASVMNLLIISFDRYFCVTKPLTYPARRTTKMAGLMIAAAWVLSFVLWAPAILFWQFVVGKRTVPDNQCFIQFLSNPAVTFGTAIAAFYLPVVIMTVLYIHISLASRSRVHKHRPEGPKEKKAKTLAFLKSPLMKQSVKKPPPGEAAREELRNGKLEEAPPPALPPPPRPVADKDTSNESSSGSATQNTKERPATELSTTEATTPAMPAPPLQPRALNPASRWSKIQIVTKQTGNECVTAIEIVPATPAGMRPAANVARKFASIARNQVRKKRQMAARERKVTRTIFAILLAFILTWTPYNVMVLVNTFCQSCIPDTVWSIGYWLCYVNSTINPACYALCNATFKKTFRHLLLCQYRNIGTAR

168 GPCRs [2] = biological target: 168 GPCRs (Homo sapiens, UniProt P08908); details: HTR1A
168 GPCRs [3] = biological target: 168 GPCRs (Homo sapiens, UniProt P21917)
168 GPCRs [4] = biological target: 168 GPCRs (Homo sapiens, UniProt P25024)
168 GPCRs [5] = biological target: 168 GPCRs (Homo sapiens, UniProt P30550); details: GRPR
168 GPCRs [6] = biological target: 168 GPCRs (Homo sapiens, UniProt P30559); details: OXTR
168 GPCRs [7] = biological target: 168 GPCRs (Homo sapiens, UniProt P32245); details: MC4R
168 GPCRs [8] = biological target: 168 GPCRs (Homo sapiens, UniProt P32745)
168 GPCRs [9] = biological target: 168 GPCRs (Homo sapiens, UniProt P35372)
168 GPCRs [10] = biological target: 168 GPCRs (Homo sapiens, UniProt P41146)
168 GPCRs [11] = biological target: 168 GPCRs (Homo sapiens, UniProt P41587)
168 GPCRs [12] = biological target: 168 GPCRs (Homo sapiens, UniProt P51685); details: CCR8, Antagonist
168 GPCRs [13] = biological target: 168 GPCRs (Homo sapiens, UniProt P51686); details: CCR9, Antagonist
168 GPCRs [14] = biological target: 168 GPCRs (Homo sapiens, UniProt Q03431)
168 GPCRs [15] = biological target: 168 GPCRs (Homo sapiens, UniProt Q15722); details: LTB4R
168 GPCRs [16] = biological target: 168 GPCRs (Homo sapiens, UniProt Q16602); details: Antagonist
Chain of 168 GPCRs (Homo sapiens, UniProt Q16602) (Q16602 23-461): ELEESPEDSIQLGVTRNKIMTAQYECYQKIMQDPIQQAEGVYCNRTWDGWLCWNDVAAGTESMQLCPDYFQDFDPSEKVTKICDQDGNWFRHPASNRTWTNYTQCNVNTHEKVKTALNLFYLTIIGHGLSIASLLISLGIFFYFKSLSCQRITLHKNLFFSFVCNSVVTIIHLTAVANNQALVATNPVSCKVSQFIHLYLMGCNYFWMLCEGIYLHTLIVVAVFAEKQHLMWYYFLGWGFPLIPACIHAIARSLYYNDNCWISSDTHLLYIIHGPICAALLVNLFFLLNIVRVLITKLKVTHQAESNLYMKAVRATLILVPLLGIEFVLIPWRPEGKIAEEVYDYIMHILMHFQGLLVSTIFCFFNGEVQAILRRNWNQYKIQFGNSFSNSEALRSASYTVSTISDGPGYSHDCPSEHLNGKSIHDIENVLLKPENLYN

Chain of 168 GPCRs (Homo sapiens, UniProt P30559) (P30559 whole entry): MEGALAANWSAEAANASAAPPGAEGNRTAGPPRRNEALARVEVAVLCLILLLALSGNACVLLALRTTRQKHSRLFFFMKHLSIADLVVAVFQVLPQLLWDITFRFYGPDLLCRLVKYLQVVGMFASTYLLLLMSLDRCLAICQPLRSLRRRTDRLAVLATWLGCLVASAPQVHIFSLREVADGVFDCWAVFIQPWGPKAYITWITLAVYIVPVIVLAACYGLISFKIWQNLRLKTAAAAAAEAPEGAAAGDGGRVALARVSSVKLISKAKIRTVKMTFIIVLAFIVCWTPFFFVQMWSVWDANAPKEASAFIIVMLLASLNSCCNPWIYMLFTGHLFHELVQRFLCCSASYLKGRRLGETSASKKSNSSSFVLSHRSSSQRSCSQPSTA
Chain of 168 GPCRs (Homo sapiens, UniProt P08908) (P08908 whole entry): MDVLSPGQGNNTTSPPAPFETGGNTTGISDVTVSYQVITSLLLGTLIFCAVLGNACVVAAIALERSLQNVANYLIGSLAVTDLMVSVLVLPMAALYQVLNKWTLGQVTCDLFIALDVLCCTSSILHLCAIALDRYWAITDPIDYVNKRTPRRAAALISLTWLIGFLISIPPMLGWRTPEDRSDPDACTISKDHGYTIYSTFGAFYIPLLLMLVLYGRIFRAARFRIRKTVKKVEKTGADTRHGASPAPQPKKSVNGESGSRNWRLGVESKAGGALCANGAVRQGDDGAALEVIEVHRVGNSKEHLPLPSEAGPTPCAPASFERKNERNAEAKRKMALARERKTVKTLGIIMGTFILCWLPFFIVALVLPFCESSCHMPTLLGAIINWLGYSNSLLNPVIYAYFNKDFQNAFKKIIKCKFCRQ
Chain of 168 GPCRs (Homo sapiens, UniProt Q15722) (Q15722 whole entry): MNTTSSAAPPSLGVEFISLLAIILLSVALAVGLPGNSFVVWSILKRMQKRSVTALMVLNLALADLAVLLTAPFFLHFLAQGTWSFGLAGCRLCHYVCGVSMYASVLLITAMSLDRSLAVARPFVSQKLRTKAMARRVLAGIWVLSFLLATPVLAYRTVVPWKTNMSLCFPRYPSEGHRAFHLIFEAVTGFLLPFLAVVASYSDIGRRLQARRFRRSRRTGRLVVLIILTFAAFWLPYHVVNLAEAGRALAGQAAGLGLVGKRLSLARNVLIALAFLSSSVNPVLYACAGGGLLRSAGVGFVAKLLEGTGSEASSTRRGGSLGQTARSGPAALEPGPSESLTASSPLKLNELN
Chain of 168 GPCRs (Homo sapiens, UniProt P51686) (P51686 whole entry): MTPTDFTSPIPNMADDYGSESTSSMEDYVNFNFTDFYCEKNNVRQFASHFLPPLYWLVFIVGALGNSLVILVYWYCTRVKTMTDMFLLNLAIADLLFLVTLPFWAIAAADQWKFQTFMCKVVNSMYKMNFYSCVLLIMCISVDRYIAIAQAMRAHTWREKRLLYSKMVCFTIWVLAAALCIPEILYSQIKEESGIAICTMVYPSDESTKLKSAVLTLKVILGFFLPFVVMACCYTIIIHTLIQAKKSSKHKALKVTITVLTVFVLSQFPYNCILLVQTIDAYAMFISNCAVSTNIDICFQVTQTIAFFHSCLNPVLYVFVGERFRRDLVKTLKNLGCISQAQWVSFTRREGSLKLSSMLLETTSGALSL
Chain of 168 GPCRs (Homo sapiens, UniProt P41587) (P41587 24-438): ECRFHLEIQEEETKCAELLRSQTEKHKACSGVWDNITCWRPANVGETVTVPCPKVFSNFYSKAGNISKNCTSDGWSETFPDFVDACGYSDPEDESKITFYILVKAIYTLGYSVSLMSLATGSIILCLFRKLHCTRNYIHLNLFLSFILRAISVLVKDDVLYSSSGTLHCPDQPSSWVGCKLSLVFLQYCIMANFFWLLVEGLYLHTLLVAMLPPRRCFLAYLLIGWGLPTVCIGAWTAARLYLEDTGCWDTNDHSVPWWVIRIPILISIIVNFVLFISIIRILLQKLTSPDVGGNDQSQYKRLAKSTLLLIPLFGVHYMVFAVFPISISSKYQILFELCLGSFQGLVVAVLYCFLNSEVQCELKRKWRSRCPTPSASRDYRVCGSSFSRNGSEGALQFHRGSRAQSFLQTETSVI
Chain of 168 GPCRs (Homo sapiens, UniProt P51685) (P51685 whole entry): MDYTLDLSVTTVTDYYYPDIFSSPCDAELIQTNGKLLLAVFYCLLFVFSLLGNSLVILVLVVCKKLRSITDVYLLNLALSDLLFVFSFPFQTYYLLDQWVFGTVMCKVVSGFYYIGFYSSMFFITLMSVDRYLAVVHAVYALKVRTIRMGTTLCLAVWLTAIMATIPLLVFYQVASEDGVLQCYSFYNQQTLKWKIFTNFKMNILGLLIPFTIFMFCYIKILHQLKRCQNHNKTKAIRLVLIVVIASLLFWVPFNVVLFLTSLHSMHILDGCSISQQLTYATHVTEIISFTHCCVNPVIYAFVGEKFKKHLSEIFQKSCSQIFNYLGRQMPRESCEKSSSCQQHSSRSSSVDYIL
Chain of 168 GPCRs (Homo sapiens, UniProt P41146) (P41146 whole entry): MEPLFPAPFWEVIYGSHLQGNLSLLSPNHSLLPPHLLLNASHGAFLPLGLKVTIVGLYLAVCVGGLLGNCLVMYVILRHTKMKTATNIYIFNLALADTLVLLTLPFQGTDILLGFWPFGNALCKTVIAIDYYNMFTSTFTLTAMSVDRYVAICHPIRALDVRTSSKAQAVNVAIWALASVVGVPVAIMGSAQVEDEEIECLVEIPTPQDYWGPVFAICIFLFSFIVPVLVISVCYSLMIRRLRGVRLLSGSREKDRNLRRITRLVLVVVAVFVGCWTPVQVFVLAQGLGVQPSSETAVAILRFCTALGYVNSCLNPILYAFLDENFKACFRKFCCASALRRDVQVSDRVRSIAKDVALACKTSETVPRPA
Chain of 168 GPCRs (Homo sapiens, UniProt P30550) (P30550 whole entry): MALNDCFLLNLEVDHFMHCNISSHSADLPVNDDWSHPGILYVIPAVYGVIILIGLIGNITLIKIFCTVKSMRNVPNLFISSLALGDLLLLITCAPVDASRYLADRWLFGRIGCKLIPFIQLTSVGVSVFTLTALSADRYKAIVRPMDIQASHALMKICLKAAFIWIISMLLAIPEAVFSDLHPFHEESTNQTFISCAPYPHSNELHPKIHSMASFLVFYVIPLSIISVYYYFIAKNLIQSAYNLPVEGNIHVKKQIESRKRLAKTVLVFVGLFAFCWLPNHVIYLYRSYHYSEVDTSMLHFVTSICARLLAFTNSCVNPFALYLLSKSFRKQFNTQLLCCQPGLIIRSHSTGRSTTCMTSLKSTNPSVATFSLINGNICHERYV
Chain of 168 GPCRs (Homo sapiens, UniProt P35372) (P35372 whole entry): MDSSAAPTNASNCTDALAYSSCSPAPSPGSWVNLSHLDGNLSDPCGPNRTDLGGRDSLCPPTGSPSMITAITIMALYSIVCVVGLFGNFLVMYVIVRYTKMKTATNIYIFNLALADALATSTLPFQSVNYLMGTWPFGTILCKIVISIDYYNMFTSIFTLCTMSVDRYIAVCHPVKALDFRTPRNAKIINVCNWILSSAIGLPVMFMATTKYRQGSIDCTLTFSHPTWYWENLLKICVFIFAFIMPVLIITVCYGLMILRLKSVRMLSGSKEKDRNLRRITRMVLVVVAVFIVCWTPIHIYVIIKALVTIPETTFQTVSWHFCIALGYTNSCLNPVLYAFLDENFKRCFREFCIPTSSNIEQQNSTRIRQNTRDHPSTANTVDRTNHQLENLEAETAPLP
Chain of 168 GPCRs (Homo sapiens, UniProt Q03431) (Q03431 27-593): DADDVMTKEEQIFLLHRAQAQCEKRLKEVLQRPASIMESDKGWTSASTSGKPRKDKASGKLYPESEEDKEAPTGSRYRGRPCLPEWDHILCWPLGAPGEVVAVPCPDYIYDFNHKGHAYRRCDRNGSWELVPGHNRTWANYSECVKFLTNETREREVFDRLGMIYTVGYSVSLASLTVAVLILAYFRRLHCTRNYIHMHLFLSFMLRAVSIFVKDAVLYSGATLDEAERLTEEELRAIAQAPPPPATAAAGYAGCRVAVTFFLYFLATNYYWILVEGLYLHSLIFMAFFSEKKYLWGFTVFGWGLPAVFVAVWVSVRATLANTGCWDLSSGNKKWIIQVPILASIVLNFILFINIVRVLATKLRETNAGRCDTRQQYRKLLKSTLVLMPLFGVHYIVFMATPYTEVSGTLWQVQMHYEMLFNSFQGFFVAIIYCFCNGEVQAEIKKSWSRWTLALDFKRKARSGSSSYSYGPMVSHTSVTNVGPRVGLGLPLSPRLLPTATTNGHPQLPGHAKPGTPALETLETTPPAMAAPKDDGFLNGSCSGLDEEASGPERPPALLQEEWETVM
Chain of 168 GPCRs (Homo sapiens, UniProt P32745) (P32745 whole entry): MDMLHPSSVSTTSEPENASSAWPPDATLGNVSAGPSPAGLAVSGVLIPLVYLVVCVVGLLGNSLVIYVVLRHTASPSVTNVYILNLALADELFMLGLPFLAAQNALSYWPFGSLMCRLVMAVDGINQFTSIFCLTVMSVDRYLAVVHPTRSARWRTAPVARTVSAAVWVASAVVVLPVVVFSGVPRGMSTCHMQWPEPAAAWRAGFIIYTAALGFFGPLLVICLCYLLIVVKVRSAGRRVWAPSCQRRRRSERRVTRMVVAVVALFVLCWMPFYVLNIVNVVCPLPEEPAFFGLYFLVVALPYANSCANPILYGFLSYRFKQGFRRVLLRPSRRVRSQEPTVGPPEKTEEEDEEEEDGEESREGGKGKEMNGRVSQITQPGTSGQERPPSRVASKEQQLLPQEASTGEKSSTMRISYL

For `CNC(C)C(=O)c1ccc2c(c1)OCO2` (stereo not drawn) [methylone, 3,4-methylenedioxy-N-methylcathinone], the activity at 1 µM (168 GPCRs [1]; 1 uM) was 10.2%, the activity at 10 µM (168 GPCRs [1]; 10 uM) was 6.7% and the activity at 10 µM (168 GPCRs [2]; Antagonist mode, 10 uM) was -6.4%. It also gave an activity at 1 µM (168 GPCRs [2]; Antagonist, 1 uM) of -5.2%, an activity at 10 µM (168 GPCRs [3]; DRD4, Antagonist mode, 10 uM) of 12.2% and an activity at 1 µM (168 GPCRs [3]; DRD4, Antagonist, 1 uM) of 8.4%. The activity at 10 µM (168 GPCRs [4]; CXCR1, Antagonist mode, 10 uM) was 3.1%, the activity at 1 µM (168 GPCRs [4]; CXCR1, Antagonist, 1 uM) was 12.1% and the activity at 10 µM (168 GPCRs [5]; Antagonist mode, 10 uM) was -1.4%. For the same compound, the activity at 1 µM (168 GPCRs [5]; Antagonist, 1 uM) was 0.7%, the activity at 10 µM (168 GPCRs [6]; Antagonist mode, 10 uM) was 6.9% and the activity at 1 µM (168 GPCRs [6]; Antagonist, 1 uM) was 12.7%. It also gave an activity at 10 µM (168 GPCRs [7]; Antagonist mode, 10 uM) of -14%, an activity at 1 µM (168 GPCRs [7]; Antagonist, 1 uM) of -5.2% and an activity at 10 µM (168 GPCRs [8]; SSTR3, Antagonist mode, 10 uM) of 8%. The activity at 1 µM (168 GPCRs [8]; SSTR3, Antagonist, 1 uM) was 13.2%, the activity at 10 µM (168 GPCRs [9]; OPRM1, OPRM1, Antagonist mode, 10 uM) was -18% and the activity at 1 µM (168 GPCRs [9]; OPRM1, OPRM1, Antagonist, 1 uM) was -8%. It also gave an activity at 10 µM (168 GPCRs [10]; OPRL1, Antagonist mode, 10 uM) of 13.2%, an activity at 1 µM (168 GPCRs [10]; OPRL1, Antagonist, 1 uM) of 17.1% and an activity at 10 µM (168 GPCRs [11]; VIPR2, Antagonist mode, 10 uM) of -2.6%. For the same compound, the activity at 1 µM (168 GPCRs [11]; VIPR2, Antagonist, 1 uM) was -1.5%, the activity at 1 µM (168 GPCRs [12]; 1 uM) was 4.7% and the activity at 10 µM (168 GPCRs [12]; 10 uM) was -0.3%. For the same compound, the activity at 1 µM (168 GPCRs [13]; 1 uM) was 2.9%, the activity at 10 µM (168 GPCRs [13]; 10 uM) was -9.9% and the activity at 10 µM (168 GPCRs [14]; PTHR1, Antagonist mode, 10 uM) was -8.3%. The activity at 1 µM (168 GPCRs [14]; PTHR1, Antagonist, 1 uM) was 2.2%, the activity at 10 µM (168 GPCRs [15]; Antagonist mode, 10 uM) was -5.2% and the activity at 1 µM (168 GPCRs [15]; Antagonist, 1 uM) was 3.5%. It also gave an activity at 1 µM (168 GPCRs [16]; CALCRL-RAMP1) of 4.7%, an activity at 10 µM (168 GPCRs [16]; CALCRL-RAMP1) of 7% and an activity at 1 µM (168 GPCRs [16]; CALCRL-RAMP2) of 19.1%. For the same compound, the activity at 10 µM (168 GPCRs [16]; CALCRL-RAMP2) was 7%, the activity at 1 µM (168 GPCRs [16]; CALCRL-RAMP3) was -18.5% and the activity at 10 µM (168 GPCRs [16]; CALCRL-RAMP3) was -7.5%.

Reference: patent US12343326B2, “Psychoactive medicines and their use for treating psychiatric and neurological conditions and disorders” (Transcend Therapeutics, Inc., priority 2021, dated 2025)
